According to patent publication US20150196033A1, “PESTICIDAL COMPOSITIONS AND PROCESSES RELATED THERETO” (priority 2012, published 2015):

Legend:
[1] = system: Beet Armyworm (BAW) (Spodoptera exigua); test: Bioassay on Beet Armyworm (BAW), 128-well diet tray assay; assay type: in vivo; conditions: second instar larvae, five to seven days; for mortality at 50 µg/cm2: read-out: Rating BAW (% Control (or Mortality))
Experimental: (§1) Certain molecules disclosed in this document were tested against BAW and CEW using procedures described in the following examples. In the reporting of the results, the “BAW & CEW Rating Table” was used (See Table Section).
Bioassays on BAW (Spodoptera exigua)
(§2) Trays were covered with a clear self-adhesive cover and held at 25° C., 14:10 light-dark for five to seven days. Percent mortality was recorded for the larvae in each well; activity in the eight wells was then averaged. The results are indicated in the table entitled “Table ABC: Biological Results” (See Table Section).

[2] = system: Corn Earworm (CEW) (Helicoverpa zea); test: Bioassay on Corn Earworm (CEW), 128-well diet tray assay; assay type: in vivo; conditions: second instar larvae, five to seven days; for mortality at 50 µg/cm2: read-out: Rating CEW (% Control (or Mortality)); for mortality at 0.5 µg/cm2: 0.5 μg/cm2 on artificial diet, read-out: Rating CEW (% Control (or Mortality)), *Tested at 0.5 μg/cm2
Experimental: as §1
Bioassays on CEW (Helicoverpa zea)
as §2

[3] = Spodoptera exigua, 168 h, 50 μg/cm2 on artificial diet
[4] = Helicoverpa zea, 168 h, 50 μg/cm2 on artificial diet

SMILES | mortality at 50 µg/cm2 [1, 3] [%] | mortality at 50 µg/cm2 [2, 4] [%] | mortality at 0.5 µg/cm2 ([2]; Helicoverpa zea, 168 h) [%] | other results
Cc1cc(C)c(N2C(=O)C(C)S/C2=N\C(=O)Nc2ccc(-c3ncn(-c4ccc(OC(F)(F)F)cc4)n3)cc2)c(C)c1 (stereo not drawn) [Molecule A37] | 50 to 100 | 50 to 100 |  | 
CCC1CS/C(=N\C(=O)Nc2ccc(-c3ncn(-c4ccc(OC(F)(F)F)cc4)n3)cc2)N1c1c(C)cc(C)cc1C (stereo not drawn) [Molecule A38] | 50 to 100 | 50 to 100 |  | 
Cc1cccc(C)c1N1CC(C)CS/C1=N\C(=O)Nc1ccc(-c2ncn(-c3ccc(OC(F)(F)F)cc3)n2)cc1 (stereo not drawn) [Molecule A39] | 50 to 100 | 50 to 100 |  | 
Cc1cc(C)c(N2/C(=N/C(=O)Nc3ccc(-c4ncn(-c5ccc(OC(F)(F)F)cc5)n4)cc3)SCC2C)c(C)c1 (stereo not drawn) [Molecule A40] |  |  |  | mortality at 12.5 µg/cm2 ([1]; Spodoptera exigua, 168 h, 12.5 μg/cm2 on artificial diet, read-out: Rating BAW (% Control (or Mortality)), **Tested at 12.5 μg/cm2): 50 to 100%; mortality at 12.5 µg/cm2 ([2]; Helicoverpa zea, 168 h, 12.5 μg/cm2 on artificial diet, read-out: Rating CEW (% Control (or Mortality)), **Tested at 12.5 μg/cm2): 50 to 100%
Cc1cc(C)c(N2CC(C)CS/C2=N\C(=O)Nc2ccc(-c3ncn(-c4ccc(OC(F)(F)F)cc4)n3)cc2)c(C)c1 (stereo not drawn) [Molecule A41] | 50 to 100 | 50 to 100 |  | 
Cc1cccc(C)c1-n1c(C)cs/c1=N\C(=O)Nc1ccc(-c2ncn(-c3ccc(OC(F)(F)F)cc3)n2)cc1 [Molecule A42] | 0 to 50 | 0 |  | 
Cc1cc(C)c(-n2c(C)cs/c2=N\C(=O)Nc2ccc(-c3ncn(-c4ccc(OC(F)(F)F)cc4)n3)cc2)c(C)c1 [Molecule A43, (Z)-1-(3-mesityl-4-methylthiazol-2(3H)-ylidene)-3-(4-(1-(4-(trifluoromethoxy)phenyl)-1H-1,2,4-triazol-3-yl)phenyl)urea] | 0 | 50 to 100 |  | 
CC(C)c1ccccc1N/C(S)=N/C(=O)Nc1ccc(-c2ncn(-c3ccc(OC(F)(F)F)cc3)n2)cc1 [Molecule A48] | 50 to 100 | 50 to 100 |  | 
Cc1cc(C)c(N/C(S)=N/C(=O)Nc2ccc(-c3ncn(-c4ccc(OC(F)(F)F)cc4)n3)cc2)c(C)c1 [Molecule A49] | 50 to 100 | 50 to 100 |  | 
COc1cc(C)c(N/C(S)=N/C(=O)Nc2ccc(-c3ncn(-c4ccc(OC(F)(F)F)cc4)n3)cc2)c(C)c1 [Molecule A50] | 50 to 100 | 50 to 100 |  | 
Cc1ccccc1NC(=O)NC(=O)Nc1ccc(-c2ncn(-c3ccc(OC(F)(F)F)cc3)n2)cc1 [Molecule A51] | 50 to 100 | 50 to 100 |  | 
CCc1ccccc1NC(=O)NC(=O)Nc1ccc(-c2ncn(-c3ccc(OC(F)(F)F)cc3)n2)cc1 [Molecule A52] | 50 to 100 | 50 to 100 |  | 
COc1ccc(NC(=O)NC(=O)Nc2ccc(-c3ncn(-c4ccc(C(F)(F)F)cc4)n3)cc2)c(C)c1 [Molecule A53] |  |  |  | Rating BAW (% Control (or Mortality)) ([1]; 50 μg/cm2 on artificial diet): D (No activity noticed in this bioassay); Rating CEW (% Control (or Mortality)) ([2]; 50 μg/cm2 on artificial diet): D (No activity noticed in this bioassay)
CCC(C)c1ccccc1N/C(=N\C(=O)Nc1ccc(-c2ncn(-c3ccc(OC(F)(F)F)cc3)n2)cc1)SCOC(=O)C(C)C (stereo not drawn) [Molecule A54] | 50 to 100 | 50 to 100 |  | 
CCc1cccc(C)c1N/C(=N\C(=O)Nc1ccc(-c2ncn(-c3ccc(OC(F)(F)F)cc3)n2)cc1)SCOC(=O)C(C)C [Molecule A55] | 50 to 100 | 50 to 100 |  | 
COc1ccc(N/C(=N\C(=O)Nc2ccc(-c3ncn(-c4ccc(OC(F)(F)F)cc4)n3)cc2)SCOC(=O)C(C)C)c(C)c1 [Molecule A56] | 50 to 100 | 50 to 100 |  | 
CCc1ccccc1N/C(=N\C(=O)Nc1ccc(-c2ncn(-c3ccc(OC(F)(F)F)cc3)n2)cc1)SCOC(=O)C(C)C [Molecule A57] | 50 to 100 | 50 to 100 |  | 
CC(C)C(=O)OCS/C(=N/C(=O)Nc1ccc(-c2ncn(-c3ccc(OC(F)(F)F)cc3)n2)cc1)Nc1c(Cl)cccc1Cl [Molecule A58] | 50 to 100 | 50 to 100 |  | 

SMILES | mortality at 50 µg/cm2 [1, 3] [%] | mortality at 50 µg/cm2 [2, 4] [%] | mortality at 0.5 µg/cm2 ([2]; Helicoverpa zea, 168 h) [%] | other results
Cc1cc(C)c(N/C(=N\C(=O)Nc2ccc(-c3ncn(-c4ccc(OC(F)(F)F)cc4)n3)cc2)SCOC(=O)C(C)C)c(C)c1 [Molecule A59] | 50 to 100 | 50 to 100 |  | 
Cc1ccccc1N/C(=N\C(=O)Nc1ccc(-c2ncn(-c3ccc(OC(F)(F)F)cc3)n2)cc1)SCOC(=O)C(C)C [Molecule A60] | 50 to 100 | 50 to 100 |  | 
CC(C)C(=O)OCS/C(=N/C(=O)Nc1ccc(-c2ncn(-c3ccc(OC(F)(F)F)cc3)n2)cc1)Nc1c(F)cccc1F [Molecule A61] | 50 to 100 | 50 to 100 |  | 
O=C(/N=C(\S)Nc1ccccc1C1CC1)Nc1ccc(-c2ncn(-c3ccc(OC(F)(F)F)cc3)n2)cc1 [Molecule A63] | 50 to 100 |  | 50 to 100 | 
CCCc1ccccc1N/C(S)=N/C(=O)Nc1ccc(-c2ncn(-c3ccc(OC(F)(F)F)cc3)n2)cc1 [Molecule A64] | 50 to 100 |  | 50 to 100 | 
CC(C)(C)c1ccccc1N/C(S)=N/C(=O)Nc1ccc(-c2ncn(-c3ccc(OC(F)(F)F)cc3)n2)cc1 [Molecule A67] | 50 to 100 |  | 50 to 100 | 
Cc1ccc(N/C(S)=N/C(=O)Nc2ccc(-c3ncn(-c4ccc(OC(F)(F)F)cc4)n3)cc2)c(C)c1 [Molecule A68] | 50 to 100 |  | 50 to 100 | 
Cc1cccc(Cl)c1N/C(S)=N/C(=O)Nc1ccc(-c2ncn(-c3ccc(OC(F)(F)F)cc3)n2)cc1 [Molecule A70] | 50 to 100 |  | 50 to 100 | 
Cc1ccc(Cl)cc1N/C(S)=N/C(=O)Nc1ccc(-c2ncn(-c3ccc(OC(F)(F)F)cc3)n2)cc1 [Molecule A72] | 50 to 100 |  | 50 to 100 | 
Cc1ccc(N/C(S)=N/C(=O)Nc2ccc(-c3ncn(-c4ccc(OC(F)(F)F)cc4)n3)cc2)c(Cl)c1 [Molecule A73] | 50 to 100 |  | 50 to 100 | 
Cc1cccc(Cl)c1N1C(=O)CS/C1=N\C(=O)Nc1ccc(-c2ncn(-c3ccc(OC(F)(F)F)cc3)n2)cc1 [Molecule A74] | 50 to 100 |  | 50 to 100 | 
Cc1cccc(N2C(=O)CS/C2=N\C(=O)Nc2ccc(-c3ncn(-c4ccc(OC(F)(F)F)cc4)n3)cc2)c1C [Molecule A75] | 50 to 100 |  | 50 to 100 | 
Cc1ccc(Cl)cc1N1C(=O)CS/C1=N\C(=O)Nc1ccc(-c2ncn(-c3ccc(OC(F)(F)F)cc3)n2)cc1 [Molecule A76] | 50 to 100 |  | 50 to 100 | 
Cc1c(F)cccc1N/C(S)=N/C(=O)Nc1ccc(-c2ncn(-c3ccc(OC(F)(F)F)cc3)n2)cc1 [Molecule A79] | 50 to 100 |  | 50 to 100 | 
CC(C)c1cccc(Cl)c1N/C(S)=N/C(=O)Nc1ccc(-c2ncn(-c3ccc(OC(F)(F)F)cc3)n2)cc1 [Molecule A81] | 50 to 100 | 50 to 100 |  | 
CC(C)c1ccc(F)cc1N/C(S)=N/C(=O)Nc1ccc(-c2ncn(-c3ccc(OC(F)(F)F)cc3)n2)cc1 [Molecule A82] | 50 to 100 |  | 50 to 100 | 
Cc1ccc(N/C(S)=N/C(=O)Nc2ccc(-c3ncn(-c4ccc(OC(F)(F)F)cc4)n3)cc2)c(C(C)C)c1 [Molecule A84] | 50 to 100 |  | 50 to 100 | 
CC(C)c1ccc(F)cc1N1C(=O)CS/C1=N\C(=O)Nc1ccc(-c2ncn(-c3ccc(OC(F)(F)F)cc3)n2)cc1 [Molecule A86] | 50 to 100 |  | 50 to 100 | 
